The text below walks through data of US20240158446A1, “CYCLIC COMPOUND HAVING SELECTIVE INHIBITORY ACTION ON KRAS OVER HRAS AND NRAS” (CHUGAI SEIYAKU KABUSHIKI KAISHA, priority 2021, published 2024).

The target in test [1] is GDP-bound HRAS wild-type protein (Homo sapiens, UniProt P01112). As to the kind of experiment: Binding to HRAS by surface plasmon resonance (SPR), Single Cycle Kinetics. The following applies: SPR, GDP-bound HRAS wild-type protein vs GDP-bound KRAS wild-type protein.
The target in test [2] is GDP-bound NRAS wild-type protein (Homo sapiens, UniProt P01111). The experiment in a line: Binding to NRAS by surface plasmon resonance (SPR), Single Cycle Kinetics. The following applies: SPR, GDP-bound NRAS wild-type protein vs GDP-bound KRAS wild-type protein.
Sequence of GDP-bound NRAS wild-type protein (P01111 whole entry): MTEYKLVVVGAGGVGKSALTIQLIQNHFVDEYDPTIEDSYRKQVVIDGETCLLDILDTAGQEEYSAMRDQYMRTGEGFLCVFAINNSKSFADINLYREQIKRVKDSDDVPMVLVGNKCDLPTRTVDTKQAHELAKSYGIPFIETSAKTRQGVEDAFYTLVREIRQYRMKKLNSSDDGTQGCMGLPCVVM

Sequence of GDP-bound HRAS wild-type protein (P01112 whole entry): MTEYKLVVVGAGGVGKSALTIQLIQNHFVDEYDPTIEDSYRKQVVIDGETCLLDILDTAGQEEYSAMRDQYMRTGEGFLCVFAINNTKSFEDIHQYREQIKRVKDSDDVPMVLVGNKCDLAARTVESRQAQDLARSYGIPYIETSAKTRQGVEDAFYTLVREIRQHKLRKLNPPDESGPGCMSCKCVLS

For the compound `CC[C@H](C)[C@@H]1NC(=O)[C@H](CC(C)C)N(C)C(=O)C[C@@H](C(=O)N2CCOCC2)N(C)C(=O)[C@H](C2CCCC2)N(C)C(=O)C2(COC2)NC(=O)[C@@H]2CCCN2C(=O)[C@H](CCc2cc(F)c(C(F)(F)F)c(F)c2)NC(=O)CN(C)C(=O)[C@H](Cc2ccc(C(F)(F)F)cc2)N2CCCCC[C@@H](C2=O)N(C)C(=O)CN(C)C1=O` [PP0501], in test [1], the “HRAS/KRAS (ratio of KD value with respect to HRAS to KD value with respect to KRAS)” value is “B (a compound having 3 or more and less than 10 is denoted as B)”. In test [2], the “NRAS/KRAS (ratio of KD value with respect to NRAS to KD value with respect to KRAS)” value was “B (a compound having 3 or more and less than 10 is denoted as B)”.

For `CC[C@H](C)[C@@H]1NC(=O)[C@H](CC(C)C)N(C)C(=O)C[C@@H](C(=O)N2CCOCC2)N(C)C(=O)[C@H](C2CCC2)N(C)C(=O)C2(CCCC2)NC(=O)[C@@H]2CCCN2C(=O)[C@H](CCc2cc(F)c(C(F)(F)F)c(F)c2)NC(=O)CN(C)C(=O)[C@H](Cc2ccc(C(F)(F)F)cc2)N2CCCCC[C@@H](C2=O)N(C)C(=O)CN(C)C1=O` [PP0504], the “HRAS/KRAS (ratio of KD value with respect to HRAS to KD value with respect to KRAS)” value in test [1] was “B (a compound having 3 or more and less than 10 is denoted as B)”. The “NRAS/KRAS (ratio of KD value with respect to NRAS to KD value with respect to KRAS)” value in test [2] is “B (a compound having 3 or more and less than 10 is denoted as B)”.

As to `CC[C@H](C)[C@@H]1NC(=O)[C@H](CC(C)C)N(C)C(=O)C[C@@H](C(=O)N2C3CCC2COC3)N(C)C(=O)[C@H](C2CCCC2)N(C)C(=O)C2(CCCC2)NC(=O)[C@@H]2CCCN2C(=O)[C@H](CCc2cc(F)c(C(F)(F)F)c(F)c2)NC(=O)CN(C)C(=O)[C@H](Cc2ccc(C(F)(F)F)cc2)N2CCCCC[C@@H](C2=O)N(C)C(=O)CN(C)C1=O` [PP0511], the “HRAS/KRAS (ratio of KD value with respect to HRAS to KD value with respect to KRAS)” value in test [1] was “B (a compound having 3 or more and less than 10 is denoted as B)”. For the same compound, in test [2], the “NRAS/KRAS (ratio of KD value with respect to NRAS to KD value with respect to KRAS)” value was “A (a compound having 10 or more and less than 20 is denoted as A)”.

Consider `CC[C@H](C)[C@@H]1NC(=O)[C@H](CC)N(C)C(=O)C[C@@H](C(=O)N2CCOCC2)N(C)C(=O)[C@H](C2CCCC2)N(C)C(=O)C2(CCCC2)NC(=O)[C@@H]2CCCN2C(=O)[C@H](CCc2cc(F)c(C(F)(F)F)c(F)c2)NC(=O)CN(C)C(=O)[C@H](Cc2ccc(C(F)(F)F)cc2)N2CCCC[C@@H](C2=O)N(C)C(=O)CN(C)C1=O` [PP0550], for which the “HRAS/KRAS (ratio of KD value with respect to HRAS to KD value with respect to KRAS)” value in test [1] was “B (a compound having 3 or more and less than 10 is denoted as B)”. Also, the “NRAS/KRAS (ratio of KD value with respect to NRAS to KD value with respect to KRAS)” value in test [2] was “B (a compound having 3 or more and less than 10 is denoted as B)”.

Regarding `CC[C@H](C)[C@@H]1NC(=O)[C@H](CC(C)C)N(C)C(=O)C[C@@H](C(=O)N2CCOCC2)N(C)C(=O)[C@H](C2CCCC2)N(C)C(=O)C2(CCCC2)NC(=O)[C@@H]2CCCN2C(=O)[C@H](CCc2cc(F)c(C(F)(F)F)c(F)c2)NC(=O)CN(C)C(=O)[C@H](Cc2ccc(C(F)(F)F)cc2)N2CCCC[C@@H](C2=O)N(C)C(=O)[C@H](CC)N(C)C1=O` [PP0551], the “HRAS/KRAS (ratio of KD value with respect to HRAS to KD value with respect to KRAS)” value in test [1] was “B (a compound having 3 or more and less than 10 is denoted as B)”. Besides, the “NRAS/KRAS (ratio of KD value with respect to NRAS to KD value with respect to KRAS)” value in test [2] is “C (A compound having a KD ratio of 0.1 or more and less than 3 is denoted as C)”.

In the case of `CC[C@H](C)[C@@H]1NC(=O)[C@H](CC(C)C)N(C)C(=O)C[C@@H](C(=O)N2C3CCC2COC3)N(C)C(=O)[C@H](C2CCCC2)N(C)C(=O)C2(CCCC2)NC(=O)[C@@H]2CCCN2C(=O)[C@H](CCc2cc(F)c(C(F)(F)F)c(F)c2)NC(=O)CN(C)C(=O)[C@H](Cc2ccc(C(F)(F)F)cc2)N2CCCC[C@@H](C2=O)N(C)C(=O)CN(C)C1=O` [PP0573], the “HRAS/KRAS (ratio of KD value with respect to HRAS to KD value with respect to KRAS)” value in test [1] is “B (a compound having 3 or more and less than 10 is denoted as B)”. Further, in test [2], the “NRAS/KRAS (ratio of KD value with respect to NRAS to KD value with respect to KRAS)” value is “B (a compound having 3 or more and less than 10 is denoted as B)”.

With `CC[C@H](C)[C@@H]1NC(=O)[C@@H](CC(C)C)N(C)C(=O)C[C@@H](C(=O)N2CCOCC2)N(C)C(=O)[C@H](C2CCCC2)N(C)C(=O)C2(CCCC2)NC(=O)[C@@H]2CCCN2C(=O)[C@H](CCc2cc(F)c(C(F)(F)F)c(F)c2)NC(=O)CN(C)C(=O)[C@H](Cc2ccc(C(F)(F)F)cc2)N2CCCC[C@@H](C2=O)N(C)C(=O)CN(C)C1=O` [PP0591], in test [1], the “HRAS/KRAS (ratio of KD value with respect to HRAS to KD value with respect to KRAS)” value was “B (a compound having 3 or more and less than 10 is denoted as B)”. In addition, in test [2], the “NRAS/KRAS (ratio of KD value with respect to NRAS to KD value with respect to KRAS)” value is “B (a compound having 3 or more and less than 10 is denoted as B)”.

Turning to `CC[C@H](C)[C@@H]1NC(=O)[C@H](CC(C)C)N(C)C(=O)C[C@@H](C(=O)N(C)C)N(C)C(=O)[C@H](C2CCCC2)N(C)C(=O)C2(CCCC2)NC(=O)[C@@H]2CCCN2C(=O)[C@H](CCc2ccc(C(F)(F)F)c(Cl)c2)NC(=O)CN(C)C(=O)[C@H](Cc2ccc(C(F)(F)F)cc2)N2CC=CCOC[C@H](C2=O)N(C)C(=O)CN(C)C1=O` [PP0628], the “HRAS/KRAS (ratio of KD value with respect to HRAS to KD value with respect to KRAS)” value in test [1] was “C (A compound having a KD ratio of 0.1 or more and less than 3 is denoted as C)”. Also, the “NRAS/KRAS (ratio of KD value with respect to NRAS to KD value with respect to KRAS)” value in test [2] is “C (A compound having a KD ratio of 0.1 or more and less than 3 is denoted as C)”.

Turning to `CC[C@H](C)[C@@H]1NC(=O)[C@H](CC(C)C)N(C)C(=O)C[C@@H](C(=O)N(C)C)N(C)C(=O)[C@H](C2CCCC2)N(C)C(=O)C2(CCCC2)NC(=O)[C@@H]2CCCN2C(=O)[C@H](CCc2ccc(C(F)(F)F)c(Cl)c2)NC(=O)CN(C)C(=O)[C@H](Cc2ccc(C)cc2)N2CC=CCOC[C@H](C2=O)N(C)C(=O)CN(C)C1=O` [PP0629], the “HRAS/KRAS (ratio of KD value with respect to HRAS to KD value with respect to KRAS)” value in test [1] is “C (A compound having a KD ratio of 0.1 or more and less than 3 is denoted as C)”. In addition, the “NRAS/KRAS (ratio of KD value with respect to NRAS to KD value with respect to KRAS)” value in test [2] is “B (a compound having 3 or more and less than 10 is denoted as B)”.

In the case of `CCO[C@@H]1C[C@H]2C(=O)NC3(CCC3)C(=O)N(C)[C@@H](C3CCCC3)C(=O)N(CC)[C@H](C(=O)N3CCOCC3)CC(=O)N(C)[C@@H](CC(C)C)C(=O)N[C@@H]([C@@H](C)CC)C(=O)N(C)CC(=O)N(C)[C@H]3CCCCCN(C3=O)[C@@H](Cc3ccc(C(F)(F)F)cc3)C(=O)N(C)CC(=O)N[C@@H](CCc3cc(F)c(C(F)(F)F)c(F)c3)C(=O)N2C1` [PP0638], in test [1], the “HRAS/KRAS (ratio of KD value with respect to HRAS to KD value with respect to KRAS)” value is “B (a compound having 3 or more and less than 10 is denoted as B)”. Also, the “NRAS/KRAS (ratio of KD value with respect to NRAS to KD value with respect to KRAS)” value in test [2] was “B (a compound having 3 or more and less than 10 is denoted as B)”.

As for `CCO[C@@H]1C[C@H]2C(=O)NC3(CCC3)C(=O)N(C)[C@@H](C3CCCC3)C(=O)N(CCC3CCC3)[C@H](C(=O)N3CCOCC3)CC(=O)N(C)[C@@H](CC(C)C)C(=O)N[C@@H]([C@@H](C)CC)C(=O)N(C)CC(=O)N(C)[C@H]3CCCCCN(C3=O)[C@@H](Cc3ccc(C(F)(F)F)cc3)C(=O)N(C)CC(=O)N[C@@H](CCc3cc(F)c(C(F)(F)F)c(F)c3)C(=O)N2C1` [PP0640], the “HRAS/KRAS (ratio of KD value with respect to HRAS to KD value with respect to KRAS)” value in test [1] is “B (a compound having 3 or more and less than 10 is denoted as B)”. Further, the “NRAS/KRAS (ratio of KD value with respect to NRAS to KD value with respect to KRAS)” value in test [2] was “B (a compound having 3 or more and less than 10 is denoted as B)”.
